From patent US20170128366A1, “PHARMACEUTICAL FORMULATIONS OF CHELATING AGENTS AS A METAL REMOVAL TREATMENT SYSTEM” (ZONEONE PHARMA, INC., priority 2013, published 2017)

Experiments:
[1] = cited from earlier work
[2] = in vivo, cited from earlier work
[3] = patients who take deferasirox; cited from earlier work
[4] = Active loading of DFO or doxorubicin into liposomes without membrane modifier, effect of temperature; format: physicochemical; conditions: 10 min, pH 6.5
Method: Active loading of DFO using no ethanol (or other membrane modifier) was done using liposomes composed of either a fluid-phase lipid (egg PC) or a gel-phase lipid (HSPC), specifically, egg PC liposomes (3:2 Chol, 0.5 M ammonium sulfate, 90 nm) or HSPC liposomes (3:2 Chol, 250 mM ammonium sulfate, 90 nm) were remote loaded with DFO at a temperature range of 40-120° C. (pH 8.0) for either 10 min or 30 min. […] The target drug to lipid ratio was 170 g DFO/mol PL. After the DFO was loaded the tubes were rapidly cooled to room temperature. Unencapsulated DFO was removed by dialysis at 4° C., and drug/PL concentrations were analyzed by HPLC as described in paragraph [0108].
This experiment was done in the absence of a chemical modifier. Liposomes were composed of either a fluid-phase lipid (egg PC) or a gel-phase lipid (HSPC), specifically, egg PC liposomes (3:2 Chol, 0.5 M ammonium sulfate, 90 nm) or HSPC liposomes (3:2 Chol, 0.25 M ammonium sulfate, 90 nm) were remote loaded with DFO or doxorubicin at a temperature range between 40-120° C. for 10 min. Doxorubicin concentration in the loading solution was 5 mg/mL and a target drug to lipid ratio of 170 g DFO/mol PL. DFO was loaded at pH 8 while doxorubicin was loaded at pH 6.5. Unencapsulated drug was removed by dialysis at 4° C., and drug/PL concentrations were analyzed by HPLC as described in paragraph [0108].

Row | SMILES | solubility [1] | water solubility [1] | absorption after oral administration / from the gastro-intestinal tract [2] | clearance from the circulation [2] | risk of renal and hepatic failure [3] | active loading efficiency ([4]; HSPC liposomes (3:2 Chol, 0.25 M ammonium sulfate), 60° C. and above) [%] | active loading ([4]; HSPC liposomes, 40° C.) | active loading ([4]; egg PC liposomes (3:2 Chol, 0.5 M ammonium sulfate), 30-110° C.)
1 | O=C(O)c1ccc(-n2nc(-c3ccccc3O)nc2-c2ccccc2O)cc1 [deferasirox] | less than 2 mg/mL | very low water-solubility | well absorbed | cleared from the circulation slowly | higher risk |  |  | 
2 | CC(=O)N(O)CCCCCNC(=O)CCC(=O)N(O)CCCCCNC(=O)CCC(=O)N(O)CCCCCN [DFO, Deferoxamine] |  | very water-soluble | poorly absorbed | rapidly cleared |  |  |  | 
3 | COc1cccc2c1C(=O)c1c(O)c3c(c(O)c1C2=O)C[C@@](O)(C(=O)CO)C[C@@H]3O[C@H]1C[C@H](N)[C@H](O)[C@H](C)O1 [doxorubicin] |  |  |  |  |  | > 90 | loaded very poorly | high efficiency
